In assay [1] the test system is LNCaP. In words: Cytotoxicity against quiescent human LNCAP cells assessed as induction of cell death at 20 uM measured after 24 hrs by SYBR green dye based fluorescence analysis. The assay is classed as functional.
For assay [2], the system named is LNCaP. In words: Induction of apoptosis in quiescent human LNCAP cells assessed as nucleus fragmentation at 5 to 12 uM measured after 24 hrs by Hoechst staining based fluorescent microscopy. Type of assay: functional, cell-based.
Assay [3] relates to LNCaP. In words: Induction of apoptosis in quiescent human LNCAP cells assessed as decrease in caspase-9 protein expression at 8 to 12 uM measured after 24 hrs by Western blot analysis. The assay is classed as functional, cell-based. (In general: A western blot detects proteins with antibodies after separation by electrophoresis.)
In assay [4] the test system is LNCaP. Kind of assay: Induction of cell death in quiescent human LNCAP cells assessed as proportion of live cells at 5 uM measured after 24 hrs by propidium iodide staining based flow cytometry analysis (reference value: 95.1%). The assay is classed as functional.
Assay [5] concerns LNCaP. In words: Induction of cell death in quiescent human LNCAP cells assessed as proportion of dead cells at 5 uM measured after 24 hrs by propidium iodide staining based flow cytometry analysis (reference value: 4.90 %). Type of assay: functional. (In general: In flow cytometry, cells or beads pass a laser one at a time.)
In assay [6] the test system is LNCaP. In words: Induction of cell death in quiescent human LNCAP cells assessed as proportion of dead cells at 10 uM measured after 24 hrs by propidium iodide staining based flow cytometry analysis (reference value: 4.90 %). Type of assay: functional.
Assay [7] deals with LNCaP. Kind of assay: Induction of apoptosis in quiescent human LNCAP cells assessed as increase in caspase-3 activity at 8 to 12 uM measured after 24 hrs. The assay is classed as functional, cell-based.
In assay [8] the test system is LNCaP. In words: Induction of cell death in quiescent human LNCAP cells assessed as proportion of live cells at 7.5 uM measured after 24 hrs by propidium iodide staining based flow cytometry analysis (reference value: 95.1%). Type of assay: functional.
The test system of assay [9] is LNCaP. Kind of assay: Induction of apoptosis in quiescent human LNCAP cells assessed as chromatin condensation at periphery of nucleus at 5 to 12 uM measured after 24 hrs by phase contrast microscopy. Type of assay: functional, cell-based.
The subject of assay [10] is LNCaP. In words: Induction of apoptosis in quiescent human LNCAP cells assessed as chromatin condensation at periphery of nucleus at 5 to 12 uM measured after 24 hrs by Hoechst staining based fluorescent microscopy. Type of assay: functional, cell-based.
Assay [11] has as its system LNCaP. Kind of assay: Induction of cell death in quiescent human LNCAP cells assessed as proportion of dead cells at 7.5 uM measured after 24 hrs by propidium iodide staining based flow cytometry analysis (reference value: 4.90 %). Type of assay: functional.
Assay [12] concerns LNCaP. Kind of assay: Induction of cell death in quiescent human LNCAP cells assessed as proportion of live cells at 10 uM measured after 24 hrs by propidium iodide staining based flow cytometry analysis (reference value: 95.1%). The assay is classed as functional.
In assay [13] the test system is LNCaP. Kind of assay: Induction of apoptosis in quiescent human LNCAP cells assessed as decrease in caspase-3 protein expression at 8 to 12 uM measured after 24 hrs by Western blot analysis. Type of assay: functional, cell-based.
Assay [14] deals with LNCaP. In words: Induction of apoptosis in quiescent human LNCAP cells assessed as nucleus fragmentation at 5 to 12 uM measured after 24 hrs by phase contrast microscopy. Type of assay: functional, cell-based.
For assay [15], the system named is LNCaP. Kind of assay: Induction of apoptosis in quiescent human LNCAP cells assessed as decrease in Bcl-2 protein expression at 8 to 12 uM measured after 24 hrs by Western blot analysis. Type of assay: functional, cell-based.
Assay [16] relates to LNCaP. Kind of assay: Cytotoxicity against quiescent human LNCAP cells assessed as induction of cell death measured after 24 hrs by […] dye based fluorescence analysis. The assay is classed as functional.
In assay [17] the test system is LNCaP. Kind of assay: Induction of cell death in quiescent human LNCAP cells assessed as proportion of dead cells at 20 uM measured after 24 hrs by propidium iodide staining based flow cytometry analysis (reference value: 4.90 %). The assay is classed as functional.
For assay [18], the system named is LNCaP. Kind of assay: Induction of cell death in quiescent human LNCAP cells assessed as proportion of live cells at 20 uM measured after 24 hrs by propidium iodide staining based flow cytometry analysis (reference value: 95.1%). The assay is classed as functional.

Activity calls are given as the source filed them. The calls are words filed in the database; no cut-off is given here.

Take `CC(C)=CCC/C(C)=C/C[C@@]12C[C@H](C(C)(C)O)OC1=C(O)C(=O)c1oc3c4c(cc(O)c3c(=O)c12)OC(C)(C)C=C4`: the outcome in assay [1] was Active.

Consider `COC(=O)[C@]1(O)C(=O)[C@](CC=C(C)C)(C/C=C(\C)CCC=C(C)C)c2c1oc1c(CC=C(C)C)c(O)cc(O)c1c2=O`, for which the outcome in [2], in [3], in assay [7], in assay [9], in assay [10] and in assay [13] was Active. Also, the outcome in assay [1], in assay [14] and in assay [15] was Active. In addition, the Activity in assay [4] is recorded as 87.6%; in [5], 12.4%; in [6], 70.1%; in assay [8], 49.9%; in [11], 50.1%; in assay [12] it was 29.9%. The Activity result in assay [16] is “Dose-dependent effect”.

For `COC(=O)C1(O)C(=O)C(CC=C(C)C)(CC=C(C)C)c2c1oc1c3c(cc(O)c1c2=O)OC(C)(C)C=C3` (stereo unspecified), the outcome in assay [1] was Active.

On to `CC(=O)O[C@H]1C(=O)[C@@]2(C)[C@H]([C@H](OC(=O)c3ccccc3)[C@]3(O)C[C@H](OC(=O)[C@H](O)[C@@H](NC(=O)c4ccccc4)c4ccccc4)C(C)=C1C3(C)C)[C@]1(OC(C)=O)CO[C@@H]1C[C@@H]2O` [PACLITAXEL], for which the Activity in [17] is 7.08%; in [18], 92.9%. The result in assay [1] was inactive.

Regarding `CC(C)=CCCC(C)(O)[C@@H]1C[C@@]2(CC=C(C)C)C(=C(O)C(=O)c3oc4c5c(cc(O)c4c(=O)c32)OC(C)(C)C=C5)O1` (stereo partly specified), in [1], the outcome was Active.

For the compound `COC(=O)c1oc2c(CC=C(C)C)c(O)cc(O)c2c(=O)c1C(CC=C(C)C)(CC=C(C)C)C(=O)O`, in assay [1], the outcome was Active.

For `CC(C)=CCc1c(O)cc(O)c2c(=O)c3c(oc12)C(=O)[C@@]1(O)C(=O)[C@]3(CC=C(C)C)C[C@@H]2C(C)(C)CCC[C@]21C`, in assay [1], the result was Active.

In the case of `COC(=O)C12OC(=O)C(CC=C(C)C)(CC=C(C)C)C1C(=O)c1c(O)cc3c(c1O2)C=CC(C)(C)O3` (racemic), in assay [1], the result was Active.

For `CC(C)=CCCC(C)(O)[C@@H]1C[C@@]23CC=C(C)CO[C@]2(O1)C(=O)c1oc2c4c(cc(O)c2c(=O)c13)OC(C)(C)C=C4` (stereo partly specified), in assay [1], the outcome was Active.

Values taken from ChEMBL document CHEMBL4406818, “Xanthone derivatives from the leaves of Garcinia oligantha” (2019).
